Structures are written as SMILES.

In one series the test system is T. gondii RH-dTom. In words: Activity against T. gondii RH-dTom. The series is classed as cell-based, Toxoplasma gondii.
The nature of series [1]: Aqueous solubility by nephelometry. The series is classed as physicochemical. As to conditions: for Sol6.5: pH 6.5 phosphate buffer.
A short description of series [2]: In vitro intrinsic clearance in human liver microsomes. The series is classed as in vitro ADME. For orientation: Microsomes from liver hold many membrane-bound enzymes, among them those of drug oxidation.
The next series addresses T. cruzi CYP51 (Trypanosoma cruzi, UniProt Q7Z1V1). Put plainly: T. cruzi CYP51 heme ligand binding. The following applies: Soret band.
The test system of series [3] is panel of cancer cell lines. The following applies: read-out: IC50 against a panel of cancer cell lines; previously reported; cited from earlier work.
A short description of series [4]: Cytotoxicity screen, growth inhibition of HFF cells. As to conditions: human.
Series [5] in a line: Cytotoxicity screen, growth inhibition of HC-04 cells. The following applies: human.
Series [6] concerns L. donovani MHOM-ET 67/L82. In words: Activity against L. donovani amastigotes, axenic assay.
Series [7] in a line: Cytotoxicity screen, growth inhibition of HEK 293T cells. As to conditions: human, Cytotoxicity IC50 HEK 293T, human kidney.
The test system of series [8] is Tulahuen C4 strain of Trypanosoma cruzi. In words: microbe, parasite or virus in culture. The following applies: read-out: T. cruzi IC50.

Sequence of T. cruzi CYP51 (Q7Z1V1 whole entry): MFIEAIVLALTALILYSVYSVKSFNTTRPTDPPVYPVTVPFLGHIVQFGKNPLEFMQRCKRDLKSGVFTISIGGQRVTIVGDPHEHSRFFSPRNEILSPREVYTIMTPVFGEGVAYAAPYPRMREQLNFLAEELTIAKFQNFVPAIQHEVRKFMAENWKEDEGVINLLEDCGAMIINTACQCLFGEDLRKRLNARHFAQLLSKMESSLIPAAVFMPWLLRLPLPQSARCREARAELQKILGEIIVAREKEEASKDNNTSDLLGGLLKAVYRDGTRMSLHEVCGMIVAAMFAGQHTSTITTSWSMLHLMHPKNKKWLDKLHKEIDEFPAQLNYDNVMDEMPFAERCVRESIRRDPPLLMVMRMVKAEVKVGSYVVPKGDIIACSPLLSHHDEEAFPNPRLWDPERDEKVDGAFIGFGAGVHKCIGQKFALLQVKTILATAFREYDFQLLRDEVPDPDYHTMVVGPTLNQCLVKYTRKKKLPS

Take `CN1CCN(c2ccc(S(=O)(=O)NCc3ccc(C(=O)Nc4cccnc4)cc3)cc2)CC1` [Compound 2]: in the series with T. gondii RH-dTom, the “Effect on growth of Toxoplasma gondii” value was “no effect on the growth”. For the same molecule, the Sol6.5 in series [1] lay in the range of 25 to 50 µg/mL. Further, the microsomal CLint (usually the rate of metabolic loss divided by the concentration) in [2] stood at 45 µL/min/mg. For the same molecule, the “T. cruzi CYP51 spectral response” value at T. cruzi CYP51 is given as “moderate type II spectral response”. The half-inhibitory concentration (IC50) (in general, the concentration that inhibits the measured activity by half) is 0.01 to 1 µM in series [3], more than 50 µM in series [4] and more than 50 µM in [5]. Also, the “Effect on growth of Leishmania donovani” value in [6] was “no effect on the growth”.
In turn, `O=C(Nc1cccnc1)c1ccc(CNS(=O)(=O)c2ccc(N3CCOCC3)cc2)cc1` [Compound 5] registered a Sol2.0 in series [1] (0.01 M HCl (approx. pH 2.0)) of 50 to 100 µg/mL. In series [1], the Sol6.5 was 12.5 to 25 µg/mL. Also, in series [2], the microsomal CLint was found to be 69 µL/min/mg. The IC50 in [5] was more than 50 µM; in series [7], less than 1 µM.
Regarding `Cc1ncccc1NC(=O)c1ccc(CNS(=O)(=O)c2ccc(N3CCN(C)CC3)cc2)cc1` [Compound 14], the “T. cruzi CYP51 spectral response” value at T. cruzi CYP51 was “did not cause any changes”.
As for `CN1CCN(c2ccc(S(=O)(=O)NCc3ccc(-c4nc(-c5cccnc5)no4)cc3)cc2)CC1` [Compound 19], in [1], the Sol6.5 was in the range of 25 to 50 µg/mL. Further, the IC50 in series [4] and in [5] was more than 50 µM each time.
Regarding `O=C(Cn1ccnc1[N+](=O)[O-])NCc1ccccc1` [benznidazole], the IC50 in series [8] was 1.2 to 4.2 µM.

Values taken from PMC6892603 (Bioorganic & medicinal chemistry letters, 2019).
